Data: patent US9902725B2, “Heterocyclic derivatives as RORgamma modulators” (GENFIT, priority 2014, dated 2018)

Experiments:
[1] = molecular target: T1, RORγt ligand-binding domain (RORγt-LBD) (Homo sapiens, UniProt P51449); assay: Time-resolved FRET (TR-FRET) RORγt coactivator assay; format: biochemical; settings: GST-RORγ-LBD, biotinylated RIP140 peptide, coactivator displacement
T1 construct: 20 nM recombinantly expressed RORγ-LBD fused to GST
T1 sequence (P51449 269-508 limits assumed): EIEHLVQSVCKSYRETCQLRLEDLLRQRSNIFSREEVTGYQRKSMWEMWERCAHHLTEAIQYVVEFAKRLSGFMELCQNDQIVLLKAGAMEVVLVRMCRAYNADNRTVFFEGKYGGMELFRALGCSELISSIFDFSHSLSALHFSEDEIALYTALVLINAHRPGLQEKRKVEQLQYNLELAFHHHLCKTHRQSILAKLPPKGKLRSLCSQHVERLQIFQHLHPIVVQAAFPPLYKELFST

human RORγt = molecular target: T2, human RORγt (Homo sapiens, UniProt P51449); assay: IL-17 secretion from EL4 murine lymphoma overexpressing human RORγt; format: cell-based; design: expressed in transfected cells; host or cells: EL-4 murine lymphoma; settings: IL-17 secretion inhibition, PMA and ionomycin stimulation, 24 h
T2 sequence (P51449 1-497 isoform P51449-2): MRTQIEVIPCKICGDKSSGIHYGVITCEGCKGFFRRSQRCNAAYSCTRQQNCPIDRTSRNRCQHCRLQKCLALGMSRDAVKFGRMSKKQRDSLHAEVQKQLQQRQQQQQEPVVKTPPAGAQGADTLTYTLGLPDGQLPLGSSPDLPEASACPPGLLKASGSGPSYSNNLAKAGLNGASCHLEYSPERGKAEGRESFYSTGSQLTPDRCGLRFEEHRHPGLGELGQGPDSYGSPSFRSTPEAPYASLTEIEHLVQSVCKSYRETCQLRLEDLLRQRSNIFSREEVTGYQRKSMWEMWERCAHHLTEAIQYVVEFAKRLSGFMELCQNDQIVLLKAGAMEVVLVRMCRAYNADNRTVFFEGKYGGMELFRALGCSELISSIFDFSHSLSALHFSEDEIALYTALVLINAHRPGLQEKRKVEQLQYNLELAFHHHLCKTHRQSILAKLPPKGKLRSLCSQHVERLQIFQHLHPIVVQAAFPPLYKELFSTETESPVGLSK
How it was run: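 EL4 murine lymphoma cells electroporated with hRORγt plasmid, seeded 150000 cells/well, pretreated with compound, then stimulated with PMA (10 ng/mL) and ionomycin (1 μM final) with compound for a further 24 h at 37° C. IL-17 in supernatant measured by HTRF or ELISA.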

IC50 [1] | IC50 (human RORγt) | Structure (SMILES)
1000 to 10000 nM | 1000 to 10000 nM | O=C(O)CCc1c[nH]c2ccc(CC(=O)NC(CC3CCCCC3)c3ccccc3N3CCCCC3)cc12 (centres unmarked) [compound 162, 3-{5-[({2-cyclohexyl-1-[2-(piperidin-1-yl)phenyl]ethyl}carbamoyl)methyl]-1H-indol-3-yl}propanoic acid]
1000 to 10000 nM | 1000 to 10000 nM | CCN(CC)c1ccccc1C(CC(C)C)NC(=O)Cc1ccc2[nH]cc(CCC(=O)O)c2c1 (centres unmarked) [compound 174, 3-{5-[({1-[2-(diethylamino)phenyl]-3-methylbutyl}carbamoyl)methyl]-1H-indol-3-yl}propanoic acid]
< 1000 nM | 1000 to 10000 nM | CC(C)(C)CC(NC(=O)Cc1ccc2[nH]cc(CCC(=O)O)c2c1)c1ccccc1N1CCCCC1 (centres unmarked) [compound 186, 3-{5-[({3,3-dimethyl-1-[2-(piperidin-1-yl)phenyl]butyl}carbamoyl)methyl]-1H-indol-3-yl}propanoic acid]
< 1000 nM | 10000 to 30000 nM | Cc1ccc(C(NC(=O)Cc2ccc3[nH]cc(CCC(=O)O)c3c2)c2ccccc2N2CCCCC2)cc1 (centres unmarked) [compound 188, 3-[5-({[(4-methylphenyl)[2-(piperidin-1-yl)phenyl]methyl]carbamoyl}methyl)-1H-indol-3-yl]propanoic acid]
< 1000 nM | 1000 to 10000 nM | CC(C)CC(NC(=O)Cc1ccc2[nH]cc(CCC(=O)O)c2c1)c1ccccc1N1CCCCCC1 (centres unmarked) [compound 198, 3-{5-[({1-[2-(azepan-1-yl)phenyl]-3-methylbutyl}carbamoyl)methyl]-1H-indol-3-yl}propanoic acid]
< 1000 nM | 1000 to 10000 nM | Cc1ccc(C(NC(=O)Cc2ccc3[nH]cc(CCC(=O)O)c3c2)c2ccccc2)c(N2CC=CC2)c1 (centres unmarked) [compound 200, 3-{5-[({[2-(2,5-dihydro-1H-pyrrol-1-yl)-4-methylphenyl](phenyl)methyl}carbamoyl)methyl]-1H-indol-3-yl}propanoic acid]
< 1000 nM | 1000 to 10000 nM | Cc1cccc(C(NC(=O)Cc2ccc3[nH]cc(CCC(=O)O)c3c2)c2ccccc2)c1N1CCCCC1 (centres unmarked) [compound 202, 3-{5-[({[3-methyl-2-(piperidin-1-yl)phenyl](phenyl)methyl}carbamoyl)methyl]-1H-indol-3-yl}propanoic acid]
< 1000 nM | 1000 to 10000 nM | Cc1ccc(C(C(=O)NCc2ccc3[nH]cc(CCC(=O)O)c3c2)c2ccccc2)c(N2CCCCC2)c1 (centres unmarked) [compound 209, 3-[5-({2-[4-methyl-2-(piperidin-1-yl)phenyl]-2-phenylacetamido}methyl)-1H-indol-3-yl]propanoic acid]
< 1000 nM | 1000 to 10000 nM | O=C(O)CCCCc1c[nH]c2ccc(CC(=O)NC(c3ccccc3)c3ccccc3N3CCCCC3)cc12 (centres unmarked) [compound 217, 5-{5-[({phenyl[2-(piperidin-1-yl)phenyl]methyl}carbamoyl)methyl]-1H-indol-3-yl}pentanoic acid]
1000 to 10000 nM | 1000 to 10000 nM | CC(C)(C)OC(=O)CCc1c[nH]c2ccc(CC(=O)NC(c3ccccc3)c3ccc(O)cc3N3CCCCC3)cc12 (centres unmarked) [compound 264, tert-butyl 3-{5-[({[4-hydroxy-2-(piperidin-1-yl)phenyl](phenyl)methyl}carbamoyl)methyl]-1H-indol-3-yl}propanoate]
